# Assay results taken from patent US12459899B2, “Isoquinolinone derivatives, method for preparing the same, and pharmaceutical composition for preventing or treating poly(ADP-ribose) polymerase-1-related diseases, comprising the same as active ingredient” (DIGMBIO. INC., priority 2019, dated 2025).
# Structures can show the parent of a compound that is named as a salt.
# Target: PARP-1 (poly[ADP-ribose] polymerase 1) enzyme (Homo sapiens (Human), UniProt P09874)
# Assay: PARP-1 (poly[ADP-ribose] polymerase 1) enzyme inhibitory ability, Trevigen assay kit
# Type: biochemical
# Details: 1 nM compound; read-out: PAR P-1 Inhibitory ability at 1 nM
# Experimental: In order to evaluate the PARP-1 (poly[ADP-ribose] polymerase 1) enzyme inhibitory ability of the compounds according to the present invention, an experiment was conducted as follows.
# Specifically, in order to evaluate the PARP-1 (poly[ADP-ribose] polymerase 1) enzyme inhibitory ability of the compounds of Examples 1 to 276 according to the present invention, the PARP-1 (poly[ADP-ribose] polymerase 1) activity was investigated in the following manner using an assay kit purchased from Trevigen, Inc. (Catalog number: 4677-096-K). 50 μL of 1×PARP buffer (provided by Trevigen's kit) was dispensed into a 96-well plate coated with histones per each well, and then rehydrated for 30 minutes. After removing the 1×PARP buffer present in the well, PARP-1 (poly[ADP-ribose] polymerase 1) enzyme (0.5 unit/well) and 1 μM concentration or various concentrations of the compounds of Example 1 to 276 were added at room temperature and reacted for 10 minutes. Thereafter, each well was treated with 25 μL of 1×PARP cocktail (biotinylated NAD, activated DNA, provided by Trevigen's kit), and then reacted at room temperature for 1 hour. After the reaction was completed, each well was washed twice with PBS (7.5 mM Na2HPO4, 2.5 mM NaH2PO4, 145 mM NaCl) containing 0.1% triton X-100, and washed twice with PBS. Then, 50 μL of strep-HRP (streptavidin-linked peroxidase) was added and reacted at room temperature for 1 hour, and then washed twice with PBS containing 0.1% triton X-100, and washed twice with PBS. After removing all PBS, 50 μL of TACS-sapphire, a substrate, was added, and reacted at room temperature for 15 minutes while blocking the light. After the reaction was terminated by treatment with 50 μL of 5% phosphoric acid to each well, the absorbance was measured at 450 nm using a microplate reader Victor3 from PerkinElmer, Inc. to quantify the value.
# Sequence of PARP-1 (poly[ADP-ribose] polymerase 1) enzyme (P09874 whole entry): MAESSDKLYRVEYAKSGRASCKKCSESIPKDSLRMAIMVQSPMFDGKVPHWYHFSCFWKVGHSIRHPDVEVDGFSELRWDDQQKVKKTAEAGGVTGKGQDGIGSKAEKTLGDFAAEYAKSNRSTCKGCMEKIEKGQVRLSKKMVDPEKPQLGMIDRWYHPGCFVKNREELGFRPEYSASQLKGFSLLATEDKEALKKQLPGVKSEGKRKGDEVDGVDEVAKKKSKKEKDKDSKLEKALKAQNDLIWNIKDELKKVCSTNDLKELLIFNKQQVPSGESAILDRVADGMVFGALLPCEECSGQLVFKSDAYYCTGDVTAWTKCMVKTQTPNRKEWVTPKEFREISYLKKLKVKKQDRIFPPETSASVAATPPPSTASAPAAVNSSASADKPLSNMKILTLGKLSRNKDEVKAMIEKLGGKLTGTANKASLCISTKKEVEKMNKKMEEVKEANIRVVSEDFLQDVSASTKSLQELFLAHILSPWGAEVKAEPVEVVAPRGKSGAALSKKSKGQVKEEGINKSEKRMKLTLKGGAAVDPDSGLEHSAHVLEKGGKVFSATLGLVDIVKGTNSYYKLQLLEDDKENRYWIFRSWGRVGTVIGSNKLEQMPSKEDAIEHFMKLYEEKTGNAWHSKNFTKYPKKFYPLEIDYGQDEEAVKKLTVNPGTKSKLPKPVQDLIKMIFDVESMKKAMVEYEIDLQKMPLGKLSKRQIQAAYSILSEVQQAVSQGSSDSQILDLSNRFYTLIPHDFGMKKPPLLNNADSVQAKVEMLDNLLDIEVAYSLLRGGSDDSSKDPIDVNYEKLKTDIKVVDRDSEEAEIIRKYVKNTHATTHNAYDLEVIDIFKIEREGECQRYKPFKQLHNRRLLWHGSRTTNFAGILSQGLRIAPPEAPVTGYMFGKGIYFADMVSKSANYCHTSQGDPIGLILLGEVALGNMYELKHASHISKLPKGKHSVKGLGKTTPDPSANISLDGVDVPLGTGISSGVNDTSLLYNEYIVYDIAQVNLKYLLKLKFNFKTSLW
row,inhibition at 0.001 µM [%],Compound
1,< 50,"N#Cc1ccc(N2CCN(CCCc3cc4cccc(F)c4c(=O)[nH]3)CC2)cn1 [Example 2, 5-(4-(3-(8-fluoro-1-oxo-1,2-dihydroisoquinolin-3-yl)propyl)piperazin-1-yl)picolinonitrile]"
2,< 50,"N#Cc1ccc(N2CCN(CCCc3cc4cccc(F)c4c(=O)[nH]3)CC2)nc1 [Example 3, 6-(4-(3-(8-fluoro-1-oxo-1,2-dihydroisoquinolin-3-yl)propyl)piperazin-1-yl)nicotinonitrile]"
3,< 50,"O=c1[nH]c(CCCN2CCN(c3ccc(C(F)(F)F)cc3)CC2)cc2cccc(F)c12 [Example 4, 8-fluoro-3-(3-(4-(4-(trifluoromethyl)phenyl)piperazin-1-yl)propyl)isoquinolin-1(2H)-one]"
4,< 50,"N#Cc1ccc(N2CCN(CCCc3cc4cccc(F)c4c(=O)[nH]3)CC2)cc1F [Example 5, 2-fluoro-4-(4-(3-(8-fluoro-1-oxo-1,2-dihydroisoquinolin-3-yl)propyl)piperazin-1-yl)benzonitrile]"
5,50 to 80,"N#Cc1ccc(N2CCN(CCCc3cc4cccc(F)c4c(=O)[nH]3)CC2)cc1 [Example 6, 4-(4-(3-(8-fluoro-1-oxo-1,2-dihydroisoquinolin-3-yl)propyl)piperazin-1-yl)benzonitrile hydrochloride]"
6,50 to 80,"N#Cc1ccc(N2CCN(CCCc3cc4ccc(F)cc4c(=O)[nH]3)CC2)cc1 [Example 8, 4-(4-(3-(7-fluoro-1-oxo-1,2-dihydroisoquinolin-3-yl)propyl)piperazin-1-yl)benzonitrile]"
7,< 50,"O=c1[nH]c(CCCN2CCN(c3ccc(C(F)(F)F)cc3)CC2)cc2ccc(F)cc12 [Example 9, 7-fluoro-3-(3-(4-(4-(trifluoromethyl)phenyl)piperazin-1-yl)propyl)isoquinolin-1(2H)-one]"
8,50 to 80,"N#Cc1ccc(N2CCN(CCCc3cc4ccc(F)cc4c(=O)[nH]3)CC2)cn1 [Example 10, 5-(4-(3-(7-fluoro-1-oxo-1,2-dihydroisoquinolin-3-yl)propyl)piperazin-1-yl)picolinonitrile]"
9,< 50,"O=c1[nH]c(CCCN2CCN(c3cccc([N+](=O)[O-])c3)CC2)cc2ccc(F)cc12 [Example 11, 7-fluoro-3-(3-(4-(3-nitrophenyl)piperazin-1-yl)propyl)isoquinolin-1(2H)-one]"
10,< 50,"O=c1[nH]c(CCCN2CCN(c3ncccn3)CC2)cc2ccc(F)cc12 [Example 13, 7-fluoro-3-(3-(4-(pyrimidin-2-yl)piperazin-1-yl)propyl)isoquinolin-1(2H)-one]"
11,< 50,"O=c1[nH]c(CCCN2CCN(c3cccc(OC(F)(F)F)c3)CC2)cc2ccc(F)cc12 [Example 16, 7-fluoro-3-(3-(4-(3-(trifluoromethoxy)phenyl)piperazin-1-yl)propyl)isoquinolin-1(2H)-one]"
12,< 50,"O=c1[nH]c(CCCN2CCN(c3cccc(Cl)c3)CC2)cc2ccc(F)cc12 [Example 17, 3-(3-(4-(3-chlorophenyl)piperazin-1-yl)propyl)-7-fluoroisoquinolin-1(2H)-one]"
13,< 50,"COC(=O)c1cccc(N2CCN(CCCc3cc4ccc(F)cc4c(=O)[nH]3)CC2)c1 [Example 18, methyl 3-(4-(3-(7-fluoro-1-oxo-1,2-dihydroisoquinolin-3-yl)propyl)piperazin-1-yl)benzoate]"

row,Compound,inhibition at 0.001 µM [%]
1,"N#Cc1ccc(N2CC3CCC(C2)N3CCCc2cc3cccc(F)c3c(=O)[nH]2)cc1 [Example 7, 4-(8-(3-(8-fluoro-1-oxo-1,2-dihydroisoquinolin-3-yl)propyl)-3,8-diazabicyclo[3.2.1]octan-3-yl)benzonitrile]",< 50

# Same assay, conditions: PARP-1 enzyme activity
row,IC50 [nM],Compound
1,0.72,"N#Cc1ccc(N2CCN(CCCc3cc4ccc(F)cc4c(=O)[nH]3)CC2)cc1 [Example 8, 4-(4-(3-(7-fluoro-1-oxo-1,2-dihydroisoquinolin-3-yl)propyl)piperazin-1-yl)benzonitrile]"
2,4.01,"O=c1[nH]c(CCCN2CCN(c3ccc(F)cc3)CC2)cc2ccc(F)cc12 [Example 15, 7-fluoro-3-(3-(4-(4-fluorophenyl)piperazin-1-yl)propyl)isoquinolin-1(2H)-one]"

# Same assay, conditions: PARP-1 enzyme activity; hydrochloride
row,IC50 [nM],Compound
1,0.41,"N#Cc1ccc(N2CCN(CCCc3cc4cccc(F)c4c(=O)[nH]3)CC2)cc1 [Example 6, 4-(4-(3-(8-fluoro-1-oxo-1,2-dihydroisoquinolin-3-yl)propyl)piperazin-1-yl)benzonitrile hydrochloride]"
